Results: US11407711B2, “Benzamide compound and use thereof” (METISA BIOTECHNOLOGY CO., LTD., priority 2018, dated 2022)
Like-named read-outs stand apart in the source and are kept apart here.

What was measured:
Assay type in all cases: in vivo
[1] = tested on: Plutella xylostella; assay: Insecticidal activity against Plutella xylostella (Airbrush spray on cabbage leaf discs); conditions: for pest or weed control at 10 µg/mL / pest or weed control at 1 µg/mL / pest or weed control at 0.5 µg/mL: Plutella xylostella, foliar, 72 h; for Fatality rate (%, 3 d after administration) 5 mg/L: Table 72, 5 mg/L; for Fatality rate (%, 3 d after administration) 0.05 mg/L: Table 74, 0.05 mg/L
Experimental: (§1) The compound to be tested was dissolved by a mixed solvent of acetone/methanol (1:1), and then diluted by water containing 0.1% (wt) Tween 80 to the required concentration.
(§2) An Airbrush spray method was adopted for the determination of the activity, with armyworm, Plutella xylostella and Chilo suppressalis as targets.
Determination method: cabbage blades were punched into 2 cm (diameter) leaf discs by a puncher; with the pressure of Airbrush spray being 10 psi (about 0.7 kg/cm^2), both sides of each leaf disc were sprayed with the amount of 0.5 ml. After dried in the shade, each leaf disc was inoculated with 10 3rd-instar larvaes, 3 repeats for each leaf disc. And then, the treated leaf discs were put into an observation room (25° C., relative humidity: 60-70%) for cultivation; the number of the survivals was surveyed 1 d, 2 d and 3 d after administration, and then the death rate was calculated.

[2] = tested on: Chilo suppressalis; assay: Insecticidal activity against Chilo suppressalis (spray on rice seedlings, stems fed to larvae)
Experimental: as §1, §2
Determination method: 1) preparation of rice seedlings: rice was cultivated in small plastic cups (diameter: 4.5 cm and height: 4 cm) at a constant temperature room (temperature: 26-28° C., relative humidity: 60-80% around and illumination: 16 hL:8 hD), after the rice grew to a 4-5 leaf stage, vigorous and uniform-growth rice seedlings were selected and treated with an insecticide, 3 repeats for each treatment. 2) Preparation of pests for test: 3rd-instar larvaes of Chilo suppressalis fed continuously in the room. 3) Inoculation of pests on rice stems by spray. The whole plants of the rice seedlings were sprayed by a spray method uniformly, with the dose of 15 ml for each treatment. The blank control was treated first, and the above operation was repeated in an order of lower to higher test concentration. After sprayed, rice seedlings were placed in the shade to dry the insecticide liquor, and then stalks about 5 cm above the basal part of the stems were cut to be fed to the pests for test. Glass petri dishes (diameter: […]) were prepared, cushioned by filter paper at the bottom thereof, and subjected to water addition for moisturizing; about 20 pieces of rice stems were put in each dish and inoculated with 10 larvaes; then the petri dishes were closed by non-woven fabrics and placed in a constant temperature room for culture. The number of survivals was surveyed 3 d after administration.

[3] = tested on: armyworm; assay: Insecticidal activity against armyworm (Airbrush spray on maize blade segments); conditions: 72 h, 3 d after administration, 3rd-instar larvae, read-out: fatality rate against armyworm
Experimental: as §1, §2
Determination method: maize blades were cut into 2 cm (length) segments; with the pressure of Airbrush spray being 10 psi (about 0.7 kg/cm^2), both sides of each blade segment were sprayed with the amount of 0.5 ml. After dried in the shade, each segment was inoculated with 10 3rd-instar larvaes, 3 repeats for each segment. And then, the treated segments were put into an observation room (25° C., relative humidity: 60-70%) for cultivation; the number of the survivals was surveyed 1 d, 2 d and 3 d after administration, and then the death rate was calculated.

[4] = Table 71, 10 mg/L, 3 d after administration, read-out: Fatality rate (%, 3 d after administration) 10 mg/L
[5] = Table 73, 0.5 mg/L, 3 d after administration
[6] = Table 72, 1 mg/L, 3 d after administration
[7] = Table 73, 1 mg/L, 3 d after administration
[8] = Table 74, 0.5 mg/L, 3 d after administration
[9] = Table 73, 0.5 mg/L, 3 d after administration, read-out: Fatality rate (%, 3 d after administration) 0.5 mg/L
[10] = Table 73, 1 mg/L, 3 d after administration, read-out: Fatality rate (%, 3 d after administration) 1 mg/L
[11] = Table 75, fast-acting efficacy, dose 0.5 mg/L
[12] = Table 76, fast-acting efficacy, dose 0.05 mg/L

COCN(C(=O)c1ccccc1)c1cccc(C(=O)N(C)c2c(C)cc(C(F)(C(F)(F)F)C(F)(F)F)cc2C)c1 [CK1, reference compound]
pest or weed control at 10 µg/mL [1, 4]: 0%

COCN(C(=O)c1ccccc1)c1cccc(C(=O)Nc2c(C)cc(C(F)(C(F)(F)F)C(F)(F)F)cc2C)c1 [CK2, reference compound]
pest or weed control at 10 µg/mL [1, 4]: 0%

Cc1cc(C(F)(C(F)(F)F)C(F)(F)F)cc(C)c1NC(=O)c1cccc(N(C#N)C(=O)c2ccccc2)c1 [CK3, reference compound]
pest or weed control at 10 µg/mL [1, 4]: 0%

NC(=O)CCN(C(=O)c1ccccc1)c1cccc(C(=O)N(CCC(N)=O)c2c(Br)cc(C(F)(C(F)(F)F)C(F)(F)F)cc2C(F)(F)F)c1F [CK4, reference compound]
pest or weed control at 10 µg/mL ([1]; read-out: Fatality rate (%, 3 d after administration) 10 mg/L, Table 71, 10 mg/L, 3 d after administration): 0%

NC(=O)CCN(C(=O)c1ccccc1)c1cccc(C(=O)N(CCC(N)=O)c2c(Br)cc(C(F)(C(F)(F)F)C(F)(F)F)cc2C(F)(F)F)c1F [CK5, reference compound]
pest or weed control at 1 µg/mL ([1]; read-out: Fatality rate (%, 3 d after administration) 1 mg/L, Table 72, 1 mg/L, 3 d after administration): 0%
Fatality rate (%, 3 d after administration) 5 mg/L ([1]; 3 d after administration): 63.5%

NC(=O)CCN(C(=O)c1ccccc1)c1cccc(C(=O)N(CCC(N)=O)c2c(Br)cc(C(F)(C(F)(F)F)C(F)(F)F)cc2C(F)(F)F)c1F [CK6, reference compound]
pest or weed control at 1 µg/mL ([1]; read-out: Fatality rate (%, 3 d after administration) 1 mg/L, Table 73, 1 mg/L, 3 d after administration): 68%
Fatality rate (%, 3 d after administration) 0.5 mg/L [1, 5]: 10%

NC(=O)CCN(C(=O)c1ccccc1)c1cccc(C(=O)N(CCC(N)=O)c2c(Br)cc(C(F)(C(F)(F)F)C(F)(F)F)cc2C(F)(F)F)c1F [CK7, reference compound]
pest or weed control at 0.5 µg/mL ([1]; read-out: Fatality rate (%, 3 d after administration) 0.5 mg/L, Table 74, 0.5 mg/L, 3 d after administration): 70%
Fatality rate (%, 3 d after administration) 0.05 mg/L ([1]; 3 d after administration): 0%

NC(=O)CCN(C(=O)c1ccccc1)c1cccc(C(=O)N(CCC(N)=O)c2c(Br)cc(C(F)(C(F)(F)F)C(F)(F)F)cc2C(F)(F)F)c1F [CK8, reference compound]
Fatality rate (%, 3 d after administration) 1 mg/L [1, 6]: 0%
Fatality rate (%, 3 d after administration) 5 mg/L ([1]; 3 d after administration): 65.8%

NC(=O)CCN(C(=O)c1ccccc1)c1cccc(C(=O)N(CCC(N)=O)c2c(Br)cc(C(F)(C(F)(F)F)C(F)(F)F)cc2C(F)(F)F)c1F [CK9, reference compound]
Fatality rate (%, 3 d after administration) 0.5 mg/L [1, 5]: 0%
Fatality rate (%, 3 d after administration) 1 mg/L [1, 7]: 55%

NC(=O)CCN(C(=O)c1ccccc1)c1cccc(C(=O)N(CCC(N)=O)c2c(Br)cc(C(F)(C(F)(F)F)C(F)(F)F)cc2C(F)(F)F)c1F [CK10, reference compound]
Fatality rate (%, 3 d after administration) 0.5 mg/L [1, 5]: 0%
Fatality rate (%, 3 d after administration) 1 mg/L [1, 7]: 55%

NC(=O)CCN(C(=O)c1ccccc1)c1cccc(C(=O)N(CCC(N)=O)c2c(Br)cc(C(F)(C(F)(F)F)C(F)(F)F)cc2C(F)(F)F)c1F [CK11, reference compound]
Fatality rate (%, 3 d after administration) 0.05 mg/L ([1]; 3 d after administration): 0%
Fatality rate (%, 3 d after administration) 0.5 mg/L [1, 8]: 75%

NC(=O)CCN(C(=O)c1ccccc1)c1cccc(C(=O)N(CCC(N)=O)c2c(Br)cc(C(F)(C(F)(F)F)C(F)(F)F)cc2C(F)(F)F)c1F [CK12, reference compound]
Fatality rate (%, 3 d after administration) 1 mg/L [1, 6]: 0%
Fatality rate (%, 3 d after administration) 5 mg/L ([1]; 3 d after administration): 60%

NC(=O)CCN(C(=O)c1ccccc1)c1cccc(C(=O)N(CCC(N)=O)c2c(Br)cc(C(F)(C(F)(F)F)C(F)(F)F)cc2C(F)(F)F)c1F [CK13, reference compound]
Fatality rate (%, 3 d after administration) 0.5 mg/L [1, 5]: 0%
Fatality rate (%, 3 d after administration) 1 mg/L [1, 7]: 75%

NC(=O)CCN(C(=O)c1ccccc1)c1cccc(C(=O)N(CCC(N)=O)c2c(Br)cc(C(F)(C(F)(F)F)C(F)(F)F)cc2C(F)(F)F)c1F [CK14, reference compound]
Fatality rate (%, 3 d after administration) 0.05 mg/L ([1]; 3 d after administration): 0%
Fatality rate (%, 3 d after administration) 0.5 mg/L [1, 8]: 60%

O=C(Nc1cccc(C(=O)Nc2c(Br)cc(C(F)(C(F)(F)F)C(F)(F)F)cc2Br)c1F)c1ccccc1 [CK15, reference compound]
pest or weed control at 0.5 µg/mL [1, 9]: 50%
pest or weed control at 1 µg/mL [1, 10]: 90%
Fatality rate (%) 1 d after administration [1, 11]: 0%
Fatality rate (%) 2 d after administration [1, 11]: 30%
Fatality rate (%) 3 d after administration ([1]; Table 75, fast-acting efficacy, dose 0.5 mg/L, 3 d after administration): 50%
Fatality rate (%, 3 d after administration) 1.25 mg/L ([2]; Table 77, 1.25 mg/L, 3 d after administration): 8.6%
Fatality rate (%, 3 d after administration) 2.5 mg/L ([2]; Table 77, 2.5 mg/L, 3 d after administration): 22.2%
Fatality rate (%, 3 d after administration) 5 mg/L ([2]; Table 77, 5 mg/L, 3 d after administration): 50.3%

CN(C(=O)c1ccccc1)c1cccc(C(=O)Nc2c(Br)cc(C(F)(C(F)(F)F)C(F)(F)F)cc2C(F)(F)F)c1F [CK16, broflanilide, reference compound]
pest or weed control at 0.5 µg/mL ([1]; Table 74, 0.5 mg/L, 3 d after administration, read-out: Fatality rate (%, 3 d after administration) 0.5 mg/L): 100%
Fatality rate (%, 3 d after administration) 0.05 mg/L ([1]; 3 d after administration): 80.8%
Fatality rate (%) 1 d after administration [1, 12]: 0%
Fatality rate (%) 2 d after administration [1, 12]: 52.5%
Fatality rate (%) 3 d after administration ([1]; Table 76, fast-acting efficacy, dose 0.05 mg/L, 3 d after administration): 80.8%
Fatality rate (%, 3 d after administration) 0.625 mg/L ([2]; Table 78, 0.625 mg/L, 3 d after administration): 10%
Fatality rate (%, 3 d after administration) 1.25 mg/L ([2]; Table 78, 1.25 mg/L, 3 d after administration): 60.3%
Fatality rate (%, 3 d after administration) 2.5 mg/L ([2]; Table 78, 2.5 mg/L, 3 d after administration): 85.5%

N#CCN(C(=O)c1ccc(F)cc1)c1cccc(C(=O)Nc2c(Br)cc(C(F)(C(F)(F)F)C(F)(F)F)cc2Br)c1F [Compound 2.7]
pest or weed control at 0.05 µg/mL ([3]; 0.05 mg/L): ≥ 90%
pest or weed control at 0.1 µg/mL ([3]; 0.1 mg/L): ≥ 90%
pest or weed control at 0.5 µg/mL ([3]; 0.5 mg/L): ≥ 90%
pest or weed control at 0.5 µg/mL ([1]; 0.5 mg/L, 3 d after administration, read-out: fatality rate against Plutella xylostella): ≥ 90%
pest or weed control at 1 µg/mL ([1]; 1 mg/L, 3 d after administration, read-out: fatality rate against Plutella xylostella): ≥ 90%
pest or weed control at 10 µg/mL [1, 4]: 100%
pest or weed control at 0.5 µg/mL [1, 9]: 100%
pest or weed control at 1 µg/mL [1, 10]: 100%
pest or weed control at 1 µg/mL ([2]; Chilo suppressalis, 72 h, 1 mg/L, survivals surveyed 3 d after administration, read-out: fatality rate against Chilo suppressalis): ≥ 90%
pest or weed control at 4 µg/mL ([2]; Chilo suppressalis, 72 h, 4 mg/L, survivals surveyed 3 d after administration, read-out: fatality rate against Chilo suppressalis): ≥ 90%
pest or weed control at 40 µg/mL ([2]; Chilo suppressalis, 72 h, 40 mg/L, survivals surveyed 3 d after administration, read-out: fatality rate against Chilo suppressalis): ≥ 90%
